Experimental findings from patent publication EP0070171A1, “Novel piperidine derivatives, processes for preparation thereof and pharmaceutical compositions containing same” (KYOWA HAKKO KOGYO CO., LTD, priority 1981, dated 1983) are described below.

Data set [1] has as its system spontaneously hypertensive rats. Description: Hypotensive activity in spontaneously hypertensive rats (Experiment 1, tail artery plethysmography). The class given is in vivo. The conditions noted are these: maximum reduction after administration versus pressure before administration; oral, 3 mg/100 g body weight, suspended in 0.3% (W/V) CMC; SHR 15 weeks old, five rats per group. The protocol:
This experiment was conducted according to the procedure described in "Spontaneously Hypertensive Rats (SHR) guidelines for Breeding, Care and Use" (published by SHR Conference) (1976) p.ll.
Five spontaneously hypertensive rats (15 weeks old, 180 mmHg or more in blood pressure) were used as one group. A test compound was suspended in 0.3% (W/V) CMC aqueous solution in a concentration of 3 mg/ml, and orally administered to the rats in a dose of 3 mg/100 g body weight. Changes in blood pressure were measured according to the method of tail artery plethysmography (see the literature cited above). The maximum reduction (mmHg) in blood pressure after the administration on the basis of the pressure before the administration is shown in Table 6.

Data set [2] is described as follows: Acute oral toxicity in mice (Experiment 2, deaths counted after 7 days). The conditions noted are these: mouse, in vivo, in aqueous physiological sodium chloride, doses 300 mg/kg or further 200, 100 or 1000 mg/kg, observation for 7 days, three or four mice per group, read-out: Dose of half being died. The protocol:
Three or four male dd-strain mice (weight 18-20g) were used as one group.
Each of the compounds was added to aqueous physiological sodium chloride, and the mixture was orally administered to the mice in a dose of 300 mg/kg or further 200, 100 or 1000 mg/kg. After the observation for 7 days, the number of deaths were counted.

SMILES strings stand for the structures.

On to `COc1ccc([C@H](O)[C@H](C)N2CCC3(CC2)OC(=O)Nc2ccccc23)cc1OC` (relative stereo) [Compound 25, threo-l'-[2-(3,4-dimethoxyphenyl)-2-hydroxy-1-methylethyl]-(2-oxo-3,4-dihydro-2H-1,3-benzoxazine-4-spiro-4'-piperidine)], for which, in data set [1], the “Reduction in blood pressure (mmHg)” value turned out to be 90 mmHg.

On to `COc1ccc([C@@H](O)[C@H](C)N2CCC3(CC2)OC(=O)Nc2ccccc23)cc1OC` (relative stereo) [Compound 26, erythro-l'-[2-(3,4-dimethoxyphenyl)-2-hydroxy-1-methylethyl]-(2-oxo-3,4-dihydro-2H-1,3-benzo-xazine-4-spiro-4'-piperidine)], for which the “Reduction in blood pressure (mmHg)” value in data set [1] worked out at 66 mmHg.

Consider `COc1cc([C@H](O)[C@H](C)N2CCC3(CC2)OC(=O)Nc2ccccc23)cc(OC)c1OC` (relative stereo) [Compound 28], for which the “Reduction in blood pressure (mmHg)” value in data set [1] came to 70 mmHg.

`COc1cc(OC)c([C@@H](O)[C@H](C)N2CCC3(CC2)OC(=O)Nc2ccccc23)cc1OC` (relative stereo) [Compound 31, erythro-l'-[2-(3,4,6-trimethoxyphenyl)-2-hydroxy-1-methylethyl]-(2-oxo-3,4-dihydro-2H-1,3-benzo-xazine-4-spiro-4'-piperidine)]: in data set [1], the “Reduction in blood pressure (mmHg)” value was 75 mmHg.

For `O=C1Nc2ccccc2C2(CCN(CC(O)c3ccccc3)CC2)O1` (stereo not shown) [Compound 2, l'-(2-phenyl-2-hydroxyethyl)-(2-oxo-3,4-dihydro-2H-1,3-benzoxazine-4-spiro-4'-piperidine)], the LD50 at 168 h in data set [2] is over 300 mg/kg. Also, in data set [1], the “Reduction in blood pressure (mmHg)” value is on record as 46.3 mmHg.

Turning to `COc1ccc(C(O)CN2CCC3(CC2)OC(=O)Nc2ccccc23)cc1OC` (stereo not shown) [Compound 4, l'-[2-(3,4-dimethoxyphenyl)-2-hydroxyethyl]-(2-oxo-3,4-dihydro-2H-1,3-benzoxazine-4-spiro-4'-piperidine)], the LD50 at 168 h in data set [2] was over 1000 mg/kg. Moreover, the “Reduction in blood pressure (mmHg)” value in data set [1] was 95.0 mmHg.

As for `O=C1Nc2ccc(Cl)cc2C2(CCN(CC(O)c3ccccc3)CC2)O1` (stereo not shown) [Compound 6, l'-(2-phenyl-2-hydroxyethyl)-(6-chloro-2-oxo-3,4-dihydro-2H-1,3-benzoxazine-4-spiro-4'-piperidine)], the “Reduction in blood pressure (mmHg)” value in data set [1] stood at 66.3 mmHg.

Turning to `O=C1Nc2ccc(Cl)cc2C2(CCN(CC(O)c3ccc(Cl)cc3)CC2)O1` (stereo not shown) [Compound 8, l'-[2-(4-chlorophenyl)-2-hydroxyethyl]-(6-chloro-2-oxo-3,4-dihydro-2H-1,3-benzoxazine-4-spiro-4'-piperidine)], the LD50 at 168 h in data set [2] was over 300 mg/kg. For the same molecule, the “Reduction in blood pressure (mmHg)” value in data set [1] is reported as 67.5 mmHg.

For the molecule `O=C1Nc2ccccc2C2(CCN(CC(O)c3ccc(Cl)cc3)CC2)O1` (stereo not shown) [Compound 9], the LD50 at 168 h in data set [2] is over 300 mg/kg. In addition, the “Reduction in blood pressure (mmHg)” value in data set [1] came to 43.7 mmHg.

With `CN1C(=O)Nc2ccccc2C12CCN(CC(O)c1ccc(Cl)cc1)CC2` (stereo not shown) [Compound 10], the “Reduction in blood pressure (mmHg)” value in data set [1] worked out at 20.0 mmHg.

In the case of `CN1C(=O)Nc2ccccc2C12CCN(CC(O)c1ccccc1)CC2` (stereo not shown) [Compound 11, l'-(2-phenyl-2-hydroxyethyl)-(3-methyl-3,4-dihydro-2(lH)-quinazolinone-4-spiro-4'-piperidine)], in data set [2], the LD50 at 168 h was 200 mg/kg. In addition, the “Reduction in blood pressure (mmHg)” value in data set [1] is 47.5 mmHg.

For `COc1ccc(C(O)CN2CCC3(CC2)c2ccccc2NC(=O)N3C)cc1OC` (stereo not shown) [Compound 12, l'-[2-(3,4-dimethoxyphenyl)-2-hydroxyethyl]-[3-methyl-3,4-dihydro-2(1H)-quinazolinone-4-spiro-4'-piperidine]], the LD50 at 168 h in data set [2] was in the range of 100 to 300 mg/kg. Moreover, the “Reduction in blood pressure (mmHg)” value in data set [1] was 35.0 mmHg.

With `COc1cc(C(O)CN2CCC3(CC2)OC(=O)Nc2ccccc23)cc(OC)c1OC` (stereo not shown) [Compound 32, l'-[2-(3,4,5-trimethoxyphenyl)-2-hydroxyethyl]-(2-oxo-3,4-dihydro-2H-1,3-benzoxazine-4-spiro-4'-piperidine)], the “Reduction in blood pressure (mmHg)” value in data set [1] turned out to be 79 mmHg.
